Data from patent US20210284615A1, “VORTIOXETINE ANALOGUE AND USE AND PREPARATION THEREOF” (priority 2016, published 2021).
Where “and” joins values, the source holds several entries; their conditions need not be identical. Equal values may be shown once. Read-outs that look alike come from different tables or passages of the source.

Columns and labels:
[1] = biological target: T1, SLC6A4 (Homo sapiens, UniProt P31645); assay: [3H]5-hydroxytryptamine (5-HT) reuptake inhibition in CHO cells transfected with pcDNA3.1-SLC6A4-His; assay type: cell-based; conditions: 25 nM [3H]5-hydroxytryptamine, 30 min
T1 construct: host or cells: CHO cells (Chinese hamster ovary, Cat #CCL-61), transient transfection with FuGENE HD
T1 sequence (P31645 whole entry): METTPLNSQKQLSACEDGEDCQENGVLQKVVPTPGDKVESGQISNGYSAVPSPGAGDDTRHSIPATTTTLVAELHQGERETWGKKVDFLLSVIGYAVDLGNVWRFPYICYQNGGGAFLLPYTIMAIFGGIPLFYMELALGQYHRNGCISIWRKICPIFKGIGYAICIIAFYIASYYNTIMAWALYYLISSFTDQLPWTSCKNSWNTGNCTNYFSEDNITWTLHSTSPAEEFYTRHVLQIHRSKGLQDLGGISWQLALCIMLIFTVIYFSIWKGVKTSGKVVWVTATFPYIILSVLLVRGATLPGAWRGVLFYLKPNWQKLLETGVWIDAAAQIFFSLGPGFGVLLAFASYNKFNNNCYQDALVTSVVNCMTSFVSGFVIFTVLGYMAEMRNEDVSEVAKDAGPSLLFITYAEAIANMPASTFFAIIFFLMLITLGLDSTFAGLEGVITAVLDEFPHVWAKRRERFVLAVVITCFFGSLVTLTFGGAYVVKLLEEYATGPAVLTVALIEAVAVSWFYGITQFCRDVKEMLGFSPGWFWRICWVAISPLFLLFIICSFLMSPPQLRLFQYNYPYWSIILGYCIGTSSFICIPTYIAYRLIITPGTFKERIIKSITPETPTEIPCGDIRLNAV
Method: SLC6A4 gene from plasmid Pcmv6-XL4-SLC6A4 (Origene, Cat #SC119478) was amplified by PCR (polymerase chain reaction), and a HIS tag was added to the C terminal, and then inserted into pcDNA3.1 (−) vector at 5′EcoR1 and 31-lind111 restriction enzyme cutting sites to build pcDNA3.1-SLC6A4-His.
CHO cells in logarithmic growth period (Chinese hamster ovary cells, Institute of Cell Biology, Chinese Academy of Sciences, Cat #CCL-61) were collected and counted. The cells were resuspended in F-12 culture media (Gibco, Cat #11330-032) and inoculated on a 96-well plate with 100 μL (20000 cells/well) per well. It was incubated in 5% CO2 incubator (relative humidity 100%) at 37° C. for 24 h.
The above modified plasmids (0.48 μg) were diluted with Opti-MEM culture medium (25 μL, Gibco, Cat #11058021), and blew gently to mix homogenously. […]
Compound 1 and vortioxetine were respectively diluted to 1 mM with Opti-MEM culture medium, then diluted 10 times per 4 times gradient, and then added to the transfected cell wells by 20 μL/well (the corresponding concentrations were 100 μM-0.0004 μM, in total of 10 concentration points, the concentration ratio between each concentration point was 4, each concentration included 3 parallel wells). […] 50 μL of lysed cell fluid was taken, and 200 μL of scintillation solution was added thereto, and reading was conducted with MicroBeta2. […]

[2] = Test of blood drug level in rats; assay type: in vivo, SD rats; conditions: for Blood drug level: intragastric, Vortioxetine 20 mg/kg (rats A1-A4), Compound 3 22.8 mg/kg (rats B1-B4), individual rats, in ng/mL (unit assumed)
Method: SD rats (male, 180-220 g, Experimental Animal Center, Chongqing Medical University) were randomly divided into groups with 4 rats per group. Food was prohibited, but not water, for 8 hours before administration.
Blood samples were collected from the orbital venous plexus at 0, 1, 2, 4, 6, 8 h after administration, wherein at least 0.3 ml was taken at each time point, and heparin was used for anticoagulant. The obtained whole blood (200 μl) was added to acetonitrile (800 LA, vortexed and shaken for 1 min, and then centrifuged for 10 min at 12000 rpm. The supernatant was taken and kept at −20° C., and the blood drug level of the supernatant was determined by LC/MS/MS. The data for each animal in groups are as follows: […]

[3] = Determination of lipid-water partition coefficient; assay type: physicochemical
Method: Vortioxetine hydrobromide (6 mg) and Compound 3 (6 mg) were dissolved respectively in a mixed solution composed of a pH 7.4 of phosphate buffer (3 ml) and n-octyl alcohol (3 ml), and the mixture was allowed to stand for 3 hours at 37° C. The concentration of each compound in water phase and oil phase was respectively determined, and calculated by logP=[…]log (Coil/Cwater). The results are as follows: logPvortioxetine=2.1; logPcompound 3=2.7.

[4] = tested on: 5-HTP induced head-twitch model; assay: Head-twitch test in mice (5-HTP induced); assay type: in vivo, KM mice; conditions: 20 mg/kg intraperitoneal injection, then 200 mg/kg 5-HTP, within 0-10 min
Method: KM mice (male, 18-22 g, Experimental Animal Center, Chongqing Medical University) were randomly divided into 6 mice per group. According to the below table, the animals in each experiment group were administrated a solution of corresponding agent, and then 200 mg/kg 5-HTP (5-hydroxytryptophan). The effects of vortioxetine and Compound 3 on the frequency of head-twitch of mice within 0-10 min were determinate (see [i]Brit. J. Pharmacol. (1963), 20, 106-120 for detailed experiment methods).

[5] = tested on: KM mice; assay: Forced swimming test in mice; assay type: in vivo; conditions: 20 mg/kg oral gastric lavage, 1 hour after administration, last 4 min of 6 min swim
Method: KM mice (male, 38-42 g, Experimental Animal Center, Chongqing Medical University) were randomly divided into groups with 6 mice per group. After fasted for 4 h, the mice were placed in a glass cylinder with a diameter of 18 cm, height of 40 cm, water depth of 15 cm (water temperature 25° C.) to swim for 6 min, then dried with a warm air blower. The animals in each experiment group were administrated a solution of corresponding agent (Oral administration of gastric lavage, 20 mg/kg) according to the table below. After 1 hour of administration, the mice were placed in a glass cylinder with a diameter of 18 cm, height of 40 cm, water depth of 15 cm (water temperature 25° C.) to swim for 6 min. The swimming of the mice was recorded within 6 min by a camera system, and the data were automatically collected and analyzed by Noldus software. The quiescent time during swimming was recorded and counted within the last 4 min (for the experiment method, see THE JOURNAL OF PHARMACOLOGY AND EXPERIMENTAL THERAPEUTICS (2012), Vol. 340, No. 3: 666-675).

[6] = human, cited from earlier work
[7] = oral administration; cited from earlier work
[8] = Test of brain concentration and plasma concentration; assay type: in vivo, KM mice; conditions: male, KM, mouse, Compound 1 23.6 mg/kg
Method: KM mice (male, 18-22 g, Experimental Animal Center, Chongqing Medical University) were randomly divided into groups with 6 mice per group. In accordance with the table below, the animals in each group were respectively injected intravenously with equal moles of vortioxetine (20 mg/kg) and Compound 1 (23.6 mg/kg). Samples of blood and brain tissue of the mouse were taken at 1 and 2 hours after injection. The concentrations of vortioxetine and Compound 1 in blood plasma and brain tissue were respectively measured, and the ratios (concentration in brain tissue/concentration in blood plasma) were calculated.

[9] = 2 h after oral 20 mg/kg, male Listar Hooded rats; cited from earlier work

Work on Cc1cc(C(F)(F)F)ccc1Sc1ccccc1N1CCNCC1 [Compound 1, 1-[2-(2-methyl-4-trifluoromethylphenylthio)phenyl]piperazine] yielded an IC50 [1] of 231 nM and a melting point of 206 to 208 °C.
With Br.Cc1cc(C(F)(F)F)ccc1Sc1ccccc1N1CCNCC1 [Compound 3, 1-[2-(2-methyl-4-trifluoromethylphenylthio)phenyl] piperazine hydrobromide] the Blood drug level ([2]; 0 h, hydrobromide) was 0.815 and 2.195 and 1.62 and 0.975, the Blood drug level ([2]; 1 h, hydrobromide) was 458.925 and 276.675 and 351.38 and 412.775 and the Blood drug level ([2]; 2 h, hydrobromide) was 587.71 and 237.72 and 441.03 and 648.63. For the same molecule, the Blood drug level ([2]; 4 h, hydrobromide) was 726.37 and 181.565 and 334.54 and 297.135, the Blood drug level ([2]; 6 h, hydrobromide) was 421.06 and 139.79 and 230.075 and 159.715 and the Blood drug level ([2]; 8 h, hydrobromide) was 386.805 and 37.895 and 109.47 and 78.5. The “blood drug levels compared with equal moles of vortioxetine” value ([2]; oral, all time points) was “higher”, the melting point was 170 to 172 °C and the logP at 3 h ([3]; pH 7.4) was 2.7. For the same molecule, the Number of head-twitch [4] was 45.0 ± 29.0 and the Quiescent time [5] was 107 ± 31 s.
For Cc1cc(C(=O)O)ccc1Sc1ccccc1N1CCNCC1 [LUAA34443], the “share of LUAA34443 and LUAA34443 glucuronide together” value ([6]; oral 14C-vortioxetine free base 50 mg, one combined value for both metabolites) is given as 44%.
In the case of Cc1ccc(Sc2ccccc2N2CCNCC2)c(C)c1 [Vortioxetine], the Blood drug level ([2]; 0 h) is reported as 0, the Blood drug level ([2]; 1 h) is reported as 48.59 and 163.07 and 183.96 and 256.56 and the Blood drug level ([2]; 2 h) is reported as 85.335 and 149.685 and 164.88 and 195.125. For the same molecule, the Blood drug level ([2]; 4 h) was 34.54 and 90.305 and 94.53 and 164.845, the Blood drug level ([2]; 6 h) was 17.095 and 47.74 and 40.91 and 72.6 and the Blood drug level ([2]; 8 h) was 7.13 and 6.76 and 23.35 and 26.315. The IC50 [1] was 267 nM, the bioavailability [7] was “about 75%” and the logP at 3 h ([3]; n-octyl alcohol / pH 7.4 phosphate buffer, pH 7.4 phosphate buffer / n-octyl alcohol, 3 hours at 37° C., read-out: logP (lipid-water partition coefficient)) was 2.1. The “parent drug share in plasma” value ([6]; 4 hours after oral 14C-vortioxetine free base 50 mg) was “about 8%”, the Number of head-twitch [4] was 56 ± 10 and the Kp at 1 h ([8]; brain/plasma, 1 hour after intravenous injection, vortioxetine 20 mg/kg, read-out: Concentration ratio in brain tissue and plasma) was 60.2 ± 8.64. The Kp at 2 h ([8]; brain/plasma, 2 hours after intravenous injection, vortioxetine 20 mg/kg, read-out: Concentration ratio in brain tissue and plasma) was 44.6 ± 13.1, the concentration at 1 h ([8]; brain, 1 hour after intravenous injection, equal moles: vortioxetine 20 mg/kg, read-out: Concentration in brain tissue) was 15400 ± 1400 ng/g and the concentration at 2 h ([8]; brain, 2 hours after intravenous injection, vortioxetine 20 mg/kg, read-out: Concentration in brain tissue) was 7490 ± 560 ng/g. The concentration at 1 h ([8]; plasma, 1 hour after intravenous injection, vortioxetine 20 mg/kg, read-out: Blood drug level) was 261 ± 53.5 ng/mL, the concentration at 2 h ([8]; plasma, 2 hours after intravenous injection, vortioxetine 20 mg/kg, read-out: Blood drug level) was 167 ± 49.5 ng/mL and the Quiescent time [5] was 136 ± 37 s. For the same molecule, the “distribution concentration in brain” value [9] was 2.77 µg/g, the “distribution concentration in kidney” value [9] was 10.3 µg/g and the “distribution concentration in liver” value [9] was 22.3 µg/g. The “distribution concentration in lung” value [9] was 15.5 µg/g.
